In assay [1] the test system is A549 cells. The assay can be described thus: MTT cytotoxicity assay, A549 cells. It is filed as cell-based, human. As to conditions: triplicate; for IC50: Homo sapiens, A549, 72 h culture, 1-100 µM; for reduction of A549 cell viability: 100 µM, 72 h.
The test system of assay [2] is MCF-7 cells. Description: MTT cytotoxicity assay, MCF-7 cells. The class given is cell-based. As to conditions: Homo sapiens, triplicate; for inhibition at 100 µM: MCF7, 100 µM, 72 h; for IC50: MCF7, 72 h culture, 1-100 µM.
Assay [3] relates to Jurkat cells. Description: MTT cytotoxicity assay, Jurkat cells. The class given is cell-based, human. To be noted: Homo sapiens, Jurkat; MTT. The procedure:
A549 and MCF-7 human cancer cell lines were cultured in Dulbecco’s Modified Eagle’s Medium (DMEM) (Wako Pure Chemical Industries, Osaka, Japan) supplemented with 10% fetal bovine serum (FBS) (Equitech-Bio, Kerrville, TX, USA). […] All media were supplemented with 89 μg/mL of streptomycin (Meiji Seika Pharma, Tokyo, Japan). […] Cancer cells and PBMCs were seeded into 24-well and 96-well microtiter tissue culture plates (Iwaki, Asahi Glass Co., Chiba, Japan) at densities of 4 × 10^4 cells/mL and 5 × 10^5 cells/mL, respectively, and incubated for 72 h prior to drug treatment. The optimal seeding density for cytotoxicity assays was determined through preliminary testing. […] The cellular reduction MTT (Dojindo Molecular Technologies, Kumamoto, Japan) was assessed following established protocols from the literature, with slight modifications.

For assay [4], the system named is EGFR. As to conditions: cited from earlier work; for IC50: Figure 3, read-out: EGFR inhibition: IC50; for EGFR inhibition: Figure 3, concentration not given, ref 36 (7), 11 (11).
Assay [5] deals with MCF-7 cells. Also on record: method as in ref 31 (1), 32 (2), 33 (3), 35 (6), 37 (8), 38 (9), 39 (10), 11 (11). To be noted: Figure 3; ref 31 (1), 32 (2), 33 (3), 35 (6), 37 (8), 38 (9), 39 (10), 11 (11); cited from earlier work.
The test system of assay [6] is A549 cells. Also on record: method as in ref 33 (3), 34 (4, 5), 36 (7), 38 (9), 39 (10), 11 (11). To be noted: Figure 3; ref 33 (3), 34 (4, 5), 36 (7), 38 (9), 39 (10), 11 (11); cited from earlier work.
The mark [7] stands for this setting: ref 31 (1), 33 (3), 35 (6), 37 (8), 38 (9), 39 (10).

Like-named read-outs stand apart in the source and are kept apart here.

With `Cc1ccc(C2=NN(c3nc(-c4ccccc4)cs3)C(c3cnc(-c4ccc(Cl)cc4)nc3)C2)cc1` (stereo not drawn) [BP-1, 1-(4-Phenylthiazol-2-yl)-3-(4-methylphenyl)-5-(2-(4-chlorophenyl)pyrimidin-5-yl)-2-pyrazoline], the figures for the IC50 in assay [1], in assay [2] and in assay [3] were greater than 100 µM, 91.6 ± 10.2 µM and greater than 100 µM, respectively. The same compound displayed an inhibition at 100 µM in assay [2] of 27 to 53%.

In assay [2], `Cc1ccc(C2=NN(c3nc(-c4ccc([N+](=O)[O-])cc4)cs3)C(c3cnc(-c4ccc(Cl)cc4)nc3)C2)cc1` (stereo not drawn) [BP-2, 1-(4-(4-Nitrophenyl)thiazol-2-yl)-3-(4-methylphenyl)-5-(2-(4-chlorophenyl)pyrimidin-5-yl)-2-pyrazoline] showed an inhibition at 100 µM of 27 to 53%. `Cc1ccc(C2=NN(c3nc(-c4ccc(F)cc4)cs3)C(c3cnc(-c4ccc(Cl)cc4)nc3)C2)cc1` (stereo not drawn) [BP-3, 1-(4-(4-Fluorophenyl)thiazol-2-yl)-3-(4-methylphenyl)-5-(2-(4-chlorophenyl)pyrimidin-5-yl)-2-pyrazoline] showed an inhibition at 100 µM in assay [2] of 27 to 53%. In assay [2], `Cc1ccc(C2=NN(c3nc(-c4ccc(Cl)cc4)cs3)C(c3cnc(-c4ccc(Cl)cc4)nc3)C2)cc1` (stereo not drawn) [BP-4, 1-(4-(4-Chlorophenyl)thiazol-2-yl)-3-(4-methylphenyl)-5-(2-(4-chlorophenyl)pyrimidin-5-yl)-2-pyrazoline] had an inhibition at 100 µM of 27 to 53%. Take `Cc1ccc(C2=NN(c3nc(-c4ccc(Br)cc4)cs3)C(c3cnc(-c4ccc(Cl)cc4)nc3)C2)cc1` (stereo not drawn) [BP-5, 1-(4-(4-Bromophenyl)thiazol-2-yl)-3-(4-methylphenyl)-5-(2-(4-chlorophenyl)pyrimidin-5-yl)-2-pyrazoline]: the “reduction of A549 cell viability” value in assay [1] is listed as 21%. Moreover, the inhibition at 100 µM in assay [2] was in the range of 27 to 53%. `Cc1ccc(C2=NN(c3nc(-c4ccc(C#N)cc4)cs3)C(c3cnc(-c4ccc(Cl)cc4)nc3)C2)cc1` (stereo not drawn) [BP-6, 1-(4-(4-Cyanophenyl)thiazol-2-yl)-3-(4-methylphenyl)-5-(2-(4-chlorophenyl)pyrimidin-5-yl)-2-pyrazoline] gave an inhibition at 100 µM in assay [2] of 27 to 53%. `Cc1ccc(C2=NN(c3nc(-c4ccc(C(F)(F)F)cc4)cs3)C(c3cnc(-c4ccc(Cl)cc4)nc3)C2)cc1` (stereo not drawn) [BP-7, 1-(4-(4-Trifluoromethylphenyl)thiazol-2-yl)-3-(4-methylphenyl)-5-(2-(4-chlorophenyl)pyrimidin-5-yl)-2-pyrazoline]: in assay [1], the “reduction of A549 cell viability” value stood at 33%. In addition, the inhibition at 100 µM in assay [2] lay in the range of 27 to 53%. In assay [2], `COc1ccc(C2=NN(c3nc(-c4ccccc4)cs3)C(c3cnc(-c4ccc(Cl)cc4)nc3)C2)cc1` (stereo not drawn) [BP-8, 1-(4-Phenylthiazol-2-yl)-3-(4-methoxyphenyl)-5-(2-(4-chlorophenyl)pyrimidin-5-yl)-2-pyrazoline] returned an inhibition at 100 µM of 27 to 53%. `COc1ccc(C2=NN(c3nc(-c4ccc([N+](=O)[O-])cc4)cs3)C(c3cnc(-c4ccc(Cl)cc4)nc3)C2)cc1` (stereo not drawn) [BP-9, 1-(4-(4-Nitrophenyl)thiazol-2-yl)-3-(4-methoxyphenyl)-5-(2-(4-chlorophenyl)pyrimidin-5-yl)-2-pyrazoline]: the inhibition at 100 µM in assay [2] is 27 to 53%. In the case of `COc1ccc(C2=NN(c3nc(-c4ccc(F)cc4)cs3)C(c3cnc(-c4ccc(Cl)cc4)nc3)C2)cc1` (stereo not drawn) [BP-10, 1-(4-(4-Fluorophenyl)thiazol-2-yl)-3-(4-methoxyphenyl)-5-(2-(4-chlorophenyl)pyrimidin-5-yl)-2-pyrazoline], the figures for the IC50 in assay [1], in assay [2] and in assay [3] were greater than 100 µM, 76 ± 9.91 µM and greater than 100 µM, respectively. In assay [2], this compound yielded an inhibition at 100 µM of 27 to 53%. As for `COc1ccc(C2=NN(c3nc(-c4ccc(Br)cc4)cs3)C(c3cnc(-c4ccc(Cl)cc4)nc3)C2)cc1` (stereo not drawn) [BP-12, 1-(4-(4-Bromophenyl)thiazol-2-yl)-3-(4-methoxyphenyl)-5-(2-(4-chlorophenyl)pyrimidin-5-yl)-2-pyrazoline], the inhibition at 100 µM in assay [2] was 27 to 53%. `COc1ccc(C2=NN(c3nc(-c4ccc(C#N)cc4)cs3)C(c3cnc(-c4ccc(Cl)cc4)nc3)C2)cc1` (stereo not drawn) [BP-13, 1-(4-(4-Cyanophenyl)thiazol-2-yl)-3-(4-methoxyphenyl)-5-(2-(4-chlorophenyl)pyrimidin-5-yl)-2-pyrazoline]: in assay [2], the inhibition at 100 µM lay in the range of 27 to 53%. In the case of `COc1ccc(C2=NN(c3nc(-c4ccc(C(F)(F)F)cc4)cs3)C(c3cnc(-c4ccc(Cl)cc4)nc3)C2)cc1` (stereo not drawn) [BP-14, 1-(4-(4-Trifluoromethylphenyl)thiazol-2-yl)-3-(4-methoxyphenyl)-5-(2-(4-chlorophenyl)pyrimidin-5-yl)-2-pyrazoline], the inhibition at 100 µM in assay [2] fell in the range of 27 to 53%. In the case of `Cc1ccc(C2=NN(c3nc(-c4ccc(Cl)cc4)cs3)C(c3ccc(F)cc3)C2)cc1C` (stereo not drawn) [Compound 1], the values for the IC50 in assay [4] (setting [7]) and in assay [5] were 0.06 µM and 0.07 µM, respectively. Regarding `COc1ccc2nc(Cl)c(C3CC(c4ccc(C)cc4)=NN3c3nc(-c4ccc(F)cc4)cs3)cc2c1` (stereo not drawn) [Compound 2], the IC50 in assay [4] (ref 32 (2), 34 (4, 5)) is 0.0318 µM; in assay [5], 0.227 µM. With `N#Cc1ccc(-c2csc(N3N=C(c4ccc(N5CCOCC5)cc4)CC3c3ccc(Cl)cc3)n2)cc1` (stereo not drawn) [Compound 3], the figures for the IC50 in assay [6], in assay [4] (setting [7]) and in assay [5] were 10.8 µM, 4.34 µM and 8.05 µM, respectively. With `CCOC(=O)c1sc(N2N=C(c3ccc(Cl)cc3Cl)CC2c2ccc(OC)cc2)nc1C` (stereo not drawn) [Compound 4], the IC50 in assay [6] was 4.22 µM; in assay [4] (ref 32 (2), 34 (4, 5)) it was 0.0407 µM. For the compound `COc1ccc(C2CC(c3ccc(Cl)cc3Cl)=NN2c2nc(C)c(C(=O)Nc3ccccc3)s2)cc1OC` (stereo not drawn) [Compound 5], the half-inhibitory concentration (IC50) in assay [6] is 2.92 µM; in assay [4] (ref 32 (2), 34 (4, 5)), 0.0325 µM. Regarding `COc1ccc(C2CC(c3ccc(OC)c(OC)c3)=NN2c2nc(-c3ccccc3)cs2)cc1` (stereo not drawn) [Compound 6], the IC50 was 0.009 µM in assay [4] (setting [7]) and 7.21 µM in assay [5]. Turning to `Clc1ccc(C2CC(c3ccc4ccccc4c3)=NN2c2nc(-c3ccc(Br)cc3)cs2)cc1` (stereo not drawn) [Compound 7], in assay [6], the half-inhibitory concentration (IC50) was 9.51 µM. Further, the EGFR inhibition in assay [4] is listed as 58%.

`CCc1nnc2c(Nc3ccc(C(=O)/C=C/c4ccc(OC)cc4)cc3)nc3ccccc3n12` [Compound 8]: the IC50 is 0.083 ± 0.04 µM in assay [4] (setting [7]) and 8.23 ± 0.25 µM in assay [5]. Turning to `Cn1c(=O)c2[nH]c(SCC(=O)Nc3ccc(C(=O)/C=C/c4ccc(Cl)cc4)cc3)nc2n(C)c1=O` [Compound 9], the IC50 in assay [6] was 1.8 ± 0.7 µM; in assay [5], 1.3 ± 0.9 µM. For the compound `C=CCn1c(SCC(=O)Nc2ccc(C(=O)/C=C/c3ccc(Cl)cc3)cc2)nnc1-c1cc(-c2ccccc2)nc2ccccc12` [Compound 10], the IC50 in assay [6] is 3.6 ± 0.05 µM; in assay [4] (setting [7]) it was 1.3 ± 1.2 µM; in assay [5], 3.3 ± 0.08 µM. Take `COc1ccc(C(=O)/C=C/c2cnc(-c3ccc(Cl)cc3)nc2)cc1OC` [Compound 11]: the concentration for half-maximal inhibition (IC50) is 20.5 ± 2.7 µM in assay [6] and 6.7 ± 1.02 µM in assay [5]. In addition, the EGFR inhibition in assay [4] is given as 46%. `COc1ccc(C2=NN(C(N)=S)C(c3cnc(-c4ccc(Cl)cc4)nc3)C2)cc1` (stereo not drawn) [Compound B-7, 3-(4-methoxyphenyl)-5-(2-(4-chlorophenyl)pyrimidin-5-yl)-1-thiocarbamoyl-2-pyrazoline]: the “reduction of A549 cell viability” value in assay [1] worked out at 35%. Moreover, the inhibition at 100 µM in assay [2] turned out to be 39%.

Values taken from PMC12346557, “Design, Synthesis, and Anticancer Evaluation of New Small-Molecule EGFR Inhibitors Targeting NSCLC and Breast Cancer” (International Journal of Molecular Sciences, 2025).
